Results on 18 molecules are retold here after paper PMC7020211, “Inhibition of Digestive Enzymes and Antioxidant Activity of Extracts from Fruits of Cornus alba, Cornus sanguinea subsp. hungarica and Cornus florida–A Comparative Study” (Plants, 2020).

The term IC50 denotes the concentration that gives 50% inhibition.

The first assay deals with PL.
Assay: not given
As to conditions: read-out: IC50 against PL activity; cited from earlier work. The arrangement: method as in doi:10.1016/j.jff.2017.04.005.
For `O=C(O)c1cc(O)c(O)c(O)c1` [gallic acid], the half-maximal inhibitory concentration (IC50) is 5050 µM. Take `O=C(/C=C/c1ccc(O)c(O)c1)O[C@@H]1C[C@](O)(C(=O)O)C[C@@H](O)[C@H]1O` [compound 1, chlorogenic acid]: the IC50 was 3810 µM.

`O=c1c(O[C@@H]2O[C@H](CO)[C@@H](O)[C@H](O)[C@H]2O)c(-c2ccc(O)cc2)oc2cc(O)cc(O)c12` [kaempferol-3-O-glucoside]: the IC50 is 3520 µM. For `O=c1c(O[C@@H]2O[C@H](CO)[C@@H](O)[C@H](O)[C@H]2O)c(-c2ccc(O)c(O)c2)oc2cc(O)cc(O)c12` [quercetin-3-O-glucoside], the 50% inhibitory concentration (IC50) is 1740 µM.

Tested on in another assay: not listed separately
Briefly: DPPH radical scavenging assay. The settings on record: half scavenging concentration; 30 min incubation, absorbance 518 nm. The protocol:
The scavenging of DPPH radical was examined using a modified assay previously described. The equal volumes (100 µL) of ethanolic solution of DPPH (0.02 M) and extract samples dissolved in 50% (v/v) aqueous-ethanol were added into 96-well microplates and incubated for 30 min in the darkness. The absorbance was measured at 518 nm with microplate reader (Synergy 4, Biotek, USA). The blind samples were prepared in order to exclude color interference. Ascorbic acid was used as a positive control.
(Loss of DPPH colour is used to gauge radical scavenging.)
On to `O=C1O[C@H]([C@@H](O)CO)C(O)=C1O` [Ascorbic acid], for which the “SC50 DPPH scavenging” value was found to be 3.73 ± 0.83 µg/mL.

In the next assay the test system is glucosidase.
Assay: not given
The arrangement: method as in Dehghan et al., 2018. As to conditions: ref Dehghan et al., 2018; cited from earlier work.
Consider `COc1cc(O)c2c(c1)C(=O)c1cc(C)cc(O)c1C2=O` [physcion], for which the “anti-glucosidase activity (in words)” value is reported as “relevant anti-glucosidase activity”. In the case of `C[C@H](CCc1ccc(O)cc1)O[C@@H]1O[C@H](CO)[C@@H](O)[C@H](O)[C@H]1O` [rhododendrin], the “anti-glucosidase activity (in words)” value was “relevant anti-glucosidase activity”. Consider `Cc1cc(O)c2c(c1)C(=O)c1cc(O)cc(O)c1C2=O` [emodin], for which the “anti-glucosidase activity (in words)” value is listed as “relevant anti-glucosidase activity”.

The target in the next assay is α-glucosidase.
Assay: not given
The arrangement: method as in doi:10.1016/j.jff.2017.04.005. As to conditions: cited from earlier work.
As for `COc1cc(/C=C/C(=O)O)ccc1O` [ferulic acid], the half-maximal inhibitory concentration (IC50) was 461 µM. For `O=C(O)c1cc(O)c(O)c(O)c1` [gallic acid], the IC50 was 296 µM. Turning to `O=C(O)/C=C/c1ccc(O)c(O)c1` [caffeic acid], the IC50 is 223 µM. As for `O=c1c(O[C@@H]2O[C@H](CO)[C@@H](O)[C@H](O)[C@H]2O)c(-c2ccc(O)c(O)c2)oc2cc(O)cc(O)c12` [quercetin-3-O-glucoside], the IC50 was 12.3 µM. kaempferol-3-O-rutinoside: the concentration for half-maximal inhibition (IC50) is 10.2 µM.

Tested on in a further assay: not given
Assay: not given
The arrangement: method as in PMID 11958615. The settings on record: concentration of 40 µM; cited from earlier work.
For the molecule `OC[C@H]1O[C@@H](Oc2cc3c(O)cc(O)cc3[o+]c2-c2cc(O)c(O)c(O)c2)[C@H](O)[C@@H](O)[C@H]1O` [delphinidin 3-O-β-galactoside], the antioxidant activity is 70.2%. As to `OC[C@H]1O[C@@H](Oc2cc3c(O)cc(O)cc3[o+]c2-c2ccc(O)c(O)c2)[C@H](O)[C@@H](O)[C@H]1O` [cyanidin 3-O-β-galactoside], the antioxidant activity is 60.1%.

With `OCC1OC(Oc2cc3c(O)cc(O)cc3[o+]c2-c2ccc(O)cc2)C(O)C(O)C1O` (stereo not drawn) [pelargonidin 3-O-β-galactoside], the antioxidant activity is 40.3%.

For the next assay, the target named is α-glucosidase from Saccharomyces cerevisiae (Saccharomyces cerevisiae, UniProt P53341). Briefly: α-glucosidase inhibition (pNPG, spectrophotometric). The assay is classed as biochemical. The settings on record: pNPG substrate, pH 6.8, 37 °C; read-out: IC50 [mM] inhibition of α-glucosidase by compounds isolated from fruit of Cornus alba. From the text: Acetonitrile (MeCN, UHPLC-grade), n-butanol (BuOH), chloroform (CHCl3), ethyl acetate (EtOAc), ethanol (EtOH) and methanol (MeOH) for extraction were obtained from POCH (Gliwice, Poland). Natural product reagent A (diphenylboric acid 2-aminoethyl ester) and quercetin 3-O-glucoside (isoquercitrin) were purchased from Carl Roth GmbH (Karlsruhe, Germany). […] Quercetin 3-O-galactoside (hyperoside) was purchased from HWI Analytik GmbH (Rheinzaberner, Germany). […] Water was obtained using Millipore Simfilter Simplicity UV (Molsheim, France) water purification system. HPLC-DAD-MS^n analysis was performed on a UHPLC-3000 RS system (Dionex, Germany) with DAD and an AmaZon SL ion trap mass spectrometer with an ESI interface (Bruker Daltonik GmbH, Germany). […] If needed, additional experiments, such as HSQC and HMBC were performed. The NMR spectra were acquired using Varian VNMRS 300 Oxford 300 MHz spectrometer (Bruker, Billerica, MA, USA).
Chain of α-glucosidase from Saccharomyces cerevisiae (P53341 whole entry): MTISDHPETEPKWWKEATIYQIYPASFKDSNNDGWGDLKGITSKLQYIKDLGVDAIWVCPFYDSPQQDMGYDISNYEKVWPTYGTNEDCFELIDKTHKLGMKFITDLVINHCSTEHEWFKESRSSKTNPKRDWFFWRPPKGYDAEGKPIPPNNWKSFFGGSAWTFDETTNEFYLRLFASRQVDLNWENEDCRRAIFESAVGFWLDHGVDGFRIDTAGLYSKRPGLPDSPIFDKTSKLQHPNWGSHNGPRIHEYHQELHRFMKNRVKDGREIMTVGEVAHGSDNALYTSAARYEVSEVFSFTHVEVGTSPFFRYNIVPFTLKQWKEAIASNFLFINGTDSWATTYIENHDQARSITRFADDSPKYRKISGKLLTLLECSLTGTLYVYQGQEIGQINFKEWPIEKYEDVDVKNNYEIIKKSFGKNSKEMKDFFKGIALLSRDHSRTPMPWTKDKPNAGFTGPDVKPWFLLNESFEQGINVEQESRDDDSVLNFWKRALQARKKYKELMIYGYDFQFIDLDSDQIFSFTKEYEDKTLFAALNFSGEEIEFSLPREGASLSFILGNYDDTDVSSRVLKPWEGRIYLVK
The α-glucosidase inhibition by extracts was determined spectrophotometrically according to the modified assay previously described. The colorimetric measurement of enzyme activity was based on the hydrolytic cleavage of a substrate, p-nitrophenyl-α-D-glucopyranoside (pNPG). Briefly, sample solution of tested extract or isolated compound (150 µl) dissolved in 0.1 M phosphate buffer (pH 6.8) was incubated with 50 µL of α-glucosidase solution (0.4 U/mL) at 37 °C. After 15 min of incubation, the substrate solution (0.7 mM in 0.1 M phosphate buffer, pH 6.8) was added and the second 15 min incubation at 37 °C was performed. The reaction was terminated by adding 50 µL sodium carbonate solution (0.2 M). The absorbance of p-nitrophenol was measured at 405 nm in a microplate reader (Synergy 4, Biotek, USA).
Turning to `COC(=O)[C@H]1O[C@@H](Oc2c(-c3ccc(O)cc3)oc3cc(O)cc(O)c3c2=O)[C@H](O)[C@@H](O)[C@@H]1O` [compound 4, kaempferol 3-O-glucuronide 6″-methylester], the 50% inhibitory concentration (IC50) came out at 0.21 ± 0.05 mM. With `O=C(C=Cc1ccc(O)cc1)OC1CC(O)(C(=O)O)CC(O)C1O` (centres unmarked) [compound 2, 5-O-coumaroylquinic acid], the IC50 is 0.84 ± 0.14 mM. On the same count and under the same terms, for `COC(=O)C1(O)CC(O)C(O)C(OC(=O)/C=C/c2ccc(O)cc2)C1` (centres unmarked) [compound 3, 5-O-(E)-p-coumaroylquinic acid methyl ester] the value was 0.16 ± 0.01 mM; for `OC[C@H]1O[C@@H](OCCc2ccc(O)c(O)c2)[C@H](O)[C@@H](O)[C@@H]1O` [compound 5, hydroxytyrosol glucoside], 1.46 ± 0.18 mM.
